Patent US10351547B2, “Somatostatin modulators and uses thereof” (priority 2016, dated 2019)
Like-named read-outs stand apart in the source and are kept apart here.

Target: human SSTR2 (Homo sapiens (Human), UniProt P30874)
Assay: Human SSTR2 intracellular cAMP functional assay for agonists (HTRF)
Assay type: cell-based
Experimental: Functional Assay for SSTR2 Agonists
General overview: All five SSTR subtypes are Gi coupled G-protein coupled receptors (GPCRs) that lead to decreases in intracellular cyclic AMP (cAMP) when activated by an agonist. […] Human SSTR2 intracellular cAMP assay is described below. The human SSTR1, 3, 4 and 5 assays follow the same protocol of SSTR2.
The cells are cultured at 37° C., 5% CO2 and 95% humidity. […] The cells are incubated for 20 minutes at 37° C. […] The cells are treated with 50 μL of lysis buffer (HRTF cAMP kit, Cisbio). […] The time-resolved fluorescent signal is read with a Tecan M1000Pro multiplate reader. The intracellular cAMP concentrations are calculated by regression to a standard curve and are plotted vs. the concentration of the compounds of the invention and the EC50 of the compounds are calculated using standard methods. All data manipulations are in GraphPad Prism v6.

[1] = CHO-K1 cells stably expressing human SSTR2, NKH477-stimulated cAMP, read-out: EC50 (inhibition of cAMP activities via human SST2R)

Sequence of human SSTR2 (P30874 whole entry): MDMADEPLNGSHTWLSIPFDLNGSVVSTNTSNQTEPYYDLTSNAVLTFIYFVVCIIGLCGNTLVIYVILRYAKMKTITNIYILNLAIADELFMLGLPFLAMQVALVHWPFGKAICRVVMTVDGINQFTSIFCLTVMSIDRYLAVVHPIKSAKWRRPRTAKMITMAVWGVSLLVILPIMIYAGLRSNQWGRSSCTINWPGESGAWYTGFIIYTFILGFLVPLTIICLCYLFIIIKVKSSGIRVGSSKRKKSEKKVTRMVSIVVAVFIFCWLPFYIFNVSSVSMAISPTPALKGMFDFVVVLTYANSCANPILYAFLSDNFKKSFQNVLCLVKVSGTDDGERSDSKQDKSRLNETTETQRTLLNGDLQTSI

| Structure (SMILES) | EC50 [1] | EC50 |
| --- | --- | --- |
| Cc1cc(F)cc(-c2cnc3ccc(-c4cncc(C#N)c4N)cc3c2N2CCC(N)CC2)c1 [2-187, 4-amino-5-[4-(4-aminopiperidin-1-yl)-3-(3-fluoro-5-methylphenyl)quinolin-6-yl]pyridine-3-carbonitrile] | < 0.01 µM | – |
| Cc1cc(F)cc(-c2cnc3ccc(-c4cc(F)cnc4N)cc3c2N2CCC(N)CC2)c1 [2-178, 3-[4-(4-aminopiperidin-1-yl)-3-(3-fluoro-5-methylphenyl)quinolin-6-yl]-5-fluoropyridin-2-amine] | < 0.01 µM | – |
| CONC(=O)Nc1nn(C)cc1-c1ccc2ncc(-c3cc(C)cc(F)c3)c(N3CCC(N)CC3)c2c1 [2-212, 1-{4-[4-(4-aminopiperidin-1-yl)-3-(3-fluoro-5-methylphenyl)quinolin-6-yl]-1-methyl-1H-pyrazol-3-yl}-3-methoxyurea] | < 0.01 µM | – |
| CC#Cc1cncc(-c2ccc3ncc(-c4cc(F)cc(F)c4)c(N4CC[C@H]5NCCO[C@@H]5C4)c3c2)c1N (relative stereo) [2-272, 3-{4-[trans-octahydro-1H-pyrido[3,4-b]morpholin-6-yl]-3-(3,5-difluorophenyl)quinolin-6-yl}-5-(prop-1-yn-1-yl)pyridin-4-amine] | < 0.01 µM | – |
| Nc1cncnc1-c1ccc2ncc(-c3cc(F)cc(F)c3)c(N3CC[C@H]4NCCO[C@@H]4C3)c2c1 (relative stereo) [2-255, 4-{4-[trans-octahydro-1H-pyrido[3,4-b]morpholin-6-yl]-3-(3,5-difluorophenyl)quinolin-6-yl}pyrimidin-5-amine] | 0.01 to 0.1 µM | – |
| N#Cc1cc(F)c(F)c(-c2ccc3ncc(-c4cc(F)cc(F)c4)c(N4CC[C@H]5NCCO[C@@H]5C4)c3c2)c1O (relative stereo) [2-100, 3-{4-[trans-octahydro-1H-pyrido[3,4-b]morpholin-6-yl]-3-(3,5-difluorophenyl)quinolin-6-yl}-4,5-difluoro-2-hydroxybenzonitrile] | 0.01 to 0.1 µM | – |
| N#Cc1cncc(-c2ccc3ncc(-c4cc(F)cc(F)c4)c(N4CCC(N)CC4)c3c2)c1N [2-177, 4-amino-5-[4-(4-aminopiperidin-1-yl)-3-(3,5-difluorophenyl)quinolin-6-yl]pyridine-3-carbonitrile] | < 0.01 µM | – |
| CO/N=C/c1cccc(-c2ccc3ncc(-c4cc(F)cc(F)c4)c(N4CCC(N)CC4)c3c2)c1O [2-81, 2-[4-(4-aminopiperidin-1-yl)-3-(3,5-difluorophenyl)quinolin-6-yl]-6-methoxyiminomethyl-phenol] | – | < 0.01 µM |
| CCCNCC1CN(c2c(-c3cc(C)cc(F)c3)cnc3ccc(-c4cccc(C#N)c4O)cc23)C1 [2-42, 3-[3-(3-fluoro-5-methylphenyl)-4-{3-[(propylamino)methyl]azetidin-1-yl}quinolin-6-yl]-2-hydroxybenzonitrile] | < 0.01 µM | – |
| COCOc1c(C#N)cc(F)cc1-c1ccc2ncc(-c3cc(F)cc(F)c3)c(N3CCC(N)CC3)c2c1 [2-194, 3-[4-(4-aminopiperidin-1-yl)-3-(3,5-difluorophenyl)quinolin-6-yl]-5-fluoro-2-(methoxymethoxy)benzonitrile] | < 0.01 µM | – |
| Cc1cc(F)cc(-c2cnc3ccc(-c4cc(F)cc(C(N)=O)c4)cc3c2N2CC(C)(CN)C2)c1 [2-14, 3-{4-[3-(aminomethyl)-3-methylazetidin-1-yl]-3-(3-fluoro-5-methylphenyl)quinolin-6-yl}-5-fluorobenzamide] | – | 0.01 to 0.1 µM |
| COC(=O)Nc1c(F)cc(F)cc1-c1ccc2ncc(-c3cc(F)cc(F)c3)c(N3CCC(N)CC3)c2c1 [2-83, methyl N-{2-[4-(4-aminopiperidin-1-yl)-3-(3,5-difluorophenyl)quinolin-6-yl]-4,6-difluorophenyl}carbamate] | < 0.01 µM | – |
| N#Cc1cccc(-c2ccc3nnc(-c4cc(F)cc(Cl)c4)c(N4CCC(N)CC4)c3c2)c1O [1-19, 3-[4-(4-aminopiperidin-1-yl)-3-(3-chloro-5-fluorophenyl)cinnolin-6-yl]-2-hydroxybenzonitrile] | < 0.01 µM | – |
| CCON=Cc1cc(F)cc(-c2cnc3ccc(-c4cccc(C#N)c4O)cc3c2N2CCC(N)CC2)c1 [2-79, 3-[4-(4-aminopiperidin-1-yl)-3-{3-[(ethoxyimino)methyl]-5-fluorophenyl}quinolin-6-yl]-2-hydroxybenzonitrile] | – | 0.1 to 1 µM |
| O=c1[nH]c2cc(-c3ccc4ncc(-c5cc(F)cc(F)c5)c(N5CC[C@H]6NCCO[C@@H]6C5)c4c3)cc(F)c2[nH]1 [2-80, trans-6-[3-(3,5-difluorophenyl)-4-{octahydro-1H-pyrido[3,4-b]morpholin-6-yl}quinolin-6-yl]-4-fluoro-2,3-dihydro-1H-1,3-benzodiazol-2-one] | < 0.01 µM | – |
| NC1CCN(c2c(-c3cc(F)cc(F)c3)cnc3ccc(-c4cccc(F)c4C=NO)cc23)CC1 [2-126, 1-[3-(3,5-difluorophenyl)-6-{3-fluoro-2-[(hydroxyimino)methyl]phenyl}quinolin-4-yl]piperidin-4-amine] | < 0.01 µM | – |

| Structure (SMILES) | EC50 [1] | EC50 |
| --- | --- | --- |
| Cc1cc(F)cc(-c2cnc3ccc(-c4cc(F)cc(C#N)c4O)cc3c2N2CC(CNCCO)C2)c1 [2-43, 5-fluoro-3-[3-(3-fluoro-5-methylphenyl)-4-(3-{[(2-hydroxyethyl)amino]methyl}azetidin-1-yl)quinolin-6-yl]-2-hydroxybenzonitrile] | < 0.01 µM | – |
| Cc1cc(Cl)cc(-c2nnc3ccc(-c4cc(F)cc5[nH]c(=O)[nH]c45)cc3c2N2CCC(N)CC2)c1 [1-24, 4-[4-(4-aminopiperidin-1-yl)-3-(3-chloro-5-methylphenyl)cinnolin-6-yl]-6-fluoro-2,3-dihydro-1H-1,3-benzodiazol-2-one] | < 0.01 µM | – |
| NC(=O)c1cc(F)cc(-c2ccc3nnc(-c4cc(Cl)cc(Cl)c4)c(N4CCC(N)CC4)c3c2)c1 [1-30, 3-[4-(4-aminopiperidin-1-yl)-3-(3,5-dichlorophenyl)cinnolin-6-yl]-5-fluorobenzamide] | < 0.01 µM | – |
| Cc1cc(F)cc(-c2nnc3ccc(-c4cc(F)cc(C(N)=O)c4)cc3c2N2CCC(N)CC2)c1 [1-13, 3-[4-(4-aminopiperidin-1-yl)-3-(3-fluoro-5-methylphenyl)cinnolin-6-yl]-5-fluorobenzamide] | < 0.01 µM | – |
| CONC(=O)Nc1c(F)cncc1-c1ccc2ncc(-c3cc(C)cc(F)c3)c(N3CCC(N)CC3)c2c1 [2-172, 1-{3-[4-(4-aminopiperidin-1-yl)-3-(3-fluoro-5-methylphenyl)quinolin-6-yl]-5-fluoropyridin-4-yl}-3-methoxyurea] | < 0.01 µM | – |
| CONC(=O)Nc1c(F)cc(F)cc1-c1ccc2ncc(-c3cc(F)cc(OC)c3)c(N3CCC(N)CC3)c2c1 [2-164, 1-{2-[4-(4-aminopiperidin-1-yl)-3-(3-fluoro-5-methoxyphenyl)quinolin-6-yl]-4,6-difluorophenyl}-3-methoxyurea] | < 0.01 µM | – |
| Cc1cc(F)cc(-c2cnc3ccc(-c4cccc5[nH]c(=O)[nH]c45)cc3c2N2CCC(N)CC2)c1 [2-8, 4-[4-(4-aminopiperidin-1-yl)-3-(3-fluoro-5-methylphenyl)quinolin-6-yl]-2,3-dihydro-1H-1,3-benzodiazol-2-one] | < 0.01 µM | – |
| CC[C@H](N)C1CN(c2c(-c3cc(C)cc(F)c3)cnc3ccc(-c4cc(F)cc(C#N)c4O)cc23)C1 [2-82, 3-(4-{3-[(1S)-1-aminopropyl]azetidin-1-yl}-3-(3-fluoro-5-methylphenyl)quinolin-6-yl)-5-fluoro-2-hydroxybenzonitrile] | – | 0.01 to 0.1 µM |
| N#Cc1cc(F)cc(-c2ccc3ncc(-c4cc(F)cc(F)c4)c(N4CCC(N)CC4)c3c2)c1O [2-10, 3-[4-(4-aminopiperidin-1-yl)-3-(3,5-difluorophenyl)quinolin-6-yl]-5-fluoro-2-hydroxybenzonitrile] | < 0.01 µM | – |
| CON=Cc1cccc(-c2ccc3ncc(-c4cc(C)cc(F)c4)c(N4CC[C@H]5NCCO[C@@H]5C4)c3c2)c1O (relative stereo) [2-221, 2-{4-[trans-octahydro-1H-pyrido[3,4-b]morpholin-6-yl]-3-(3-fluoro-5-methylphenyl)quinolin-6-yl}-6-[(methoxyimino)methyl]phenol] | < 0.01 µM | – |
| CCCNCC1CN(c2c(-c3cc(C)cc(F)c3)cnc3ccc(-c4cc(F)cc(C#N)c4O)cc23)C1 [2-31, 5-fluoro-3-[3-(3-fluoro-5-methylphenyl)-4-{3-[(propylamino)methyl]azetidin-1-yl}quinolin-6-yl]-2-hydroxybenzonitrile] | < 0.01 µM | – |
| Cc1cc(F)cc(-c2cnc3ccc(-c4cc(F)cc(C#N)c4O)cc3c2N2CC(CN3CCCC3)C2)c1 [2-30, 5-fluoro-3-[3-(3-fluoro-5-methyl-phenyl)-4-(3-pyrrolidin-1-ylmethyl-azetidin-1-yl)-quinolin-6-yl]-2-hydroxy-benzonitrile] | < 0.01 µM | – |
| Cc1cc(F)cc(-c2cnc3ccc(-c4cc(F)cc(C#N)c4O)cc3c2N2CC(CNCCF)C2)c1 [2-24, 5-fluoro-3-[3-(3-fluoro-5-methylphenyl)-4-(3-{[(2-fluoroethyl)amino]methyl}azetidin-1-yl)quinolin-6-yl]-2-hydroxybenzonitrile] | < 0.01 µM | – |
| Cc1cc(Cl)cc(-c2cnc3ccc(-c4cc(F)cc(C#N)c4O)cc3c2N2CC(C)(CN)C2)c1 [2-15, 3-{4-[3-(aminomethyl)-3-methylazetidin-1-yl]-3-(3-chloro-5-methylphenyl)quinolin-6-yl}-5-fluoro-2-hydroxybenzonitrile] | 0.1 to 1 µM | – |
| Cc1cc(F)cc(-c2cnc3ccc(-c4cc(F)cc(C#N)c4O)cc3c2N2CC(CN3CCCCC3)C2)c1 [2-50, 5-fluoro-3-[3-(3-fluoro-5-methylphenyl)-4-[3-(piperidin-1-ylmethyl)azetidin-1-yl]quinolin-6-yl]-2-hydroxybenzonitrile] | – | 0.01 to 0.1 µM |
